According to patent publication US20050272720A1 (priority 2004, published 2005):

Test: Solid-state stability of olanzapine acetate under normal conditions
Type: physicochemical
Source text: The olanzapine acetate in solid state is a particulate material, with no or minimal tendency of reversible absorption of water from the environment, and with good handling properties.

In the case of Cc1cc2c(s1)Nc1ccccc1N=C2N1CCN(C)CC1 [olanzapine acetate], the “stability under normal conditions of temperature and moisture” value was “sufficiently stable”.
